The values below come from patent US6479487B1, “6, 9-disubstituted 2-[trans-(4-aminocyclohexyl)amino] purines” (Aventis Pharmaceuticals Inc., priority 1998, dated 2002).

The test system of one assay is MDA-MB-231. Briefly: In vitro tumor cell proliferation, MDA-MB-231. The format is cell-based, human. Particulars: sulforhodamine B or CyQUANT assay, many values given with an undefined *, read-out: In vitro Tumor Cell Proliferation (IC50, μM) Breast MDA-MB-231. In outline:
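Proliferation quantified by SRB staining of TCA-fixed cells after 3 days of drug plus 4 days with replenished drug, following overnight attachment at 37 °C.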

The subject of a further assay is DMS-114. The assay can be described thus: In vitro tumor cell proliferation, DMS-114. Particulars: many values given with an undefined *, read-out: In vitro Tumor Cell Proliferation (IC50, μM) Lung DMS-114. It is filed as cell-based, human. An outline of the steps:
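Human small cell lung carcinoma DMS-114 cells plated overnight, then drug-treated for 3 days, medium and drug renewed, and incubated 4 more days. Growth read by sulforhodamine B staining after TCA fixation; alternatively by CyQUANT after 3 days' drug exposure and freezing at −80 °C.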

For another assay, the system named is PC-3. The assay can be described thus: In vitro tumor cell proliferation, PC-3. The format is cell-based, human. The settings on record: many values given with an undefined *, read-out: In vitro Tumor Cell Proliferation (IC50, μM) Prostate PC-3. In outline:
(§1)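 SRB read-out: cells seeded overnight, 37° C; drug 3 d, medium plus fresh drug replaced, +4 d; TCA fix 60 min 4° C, 0.4% SRB stain 30 min. Alt. CyQUANT: drug 3 d, plates frozen −80° C before read.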

Another assay concerns DU145. Briefly: In vitro tumor cell proliferation, DU145. Particulars: many values given with an undefined *, read-out: In vitro Tumor Cell Proliferation (IC50, μM) Prostate DU145. The format is cell-based, human. An outline of the steps:
as §1

In a further assay the test system is MDA-MB-435. Briefly: In vitro tumor cell proliferation, MDA-MB-435. The format is cell-based. Particulars: values given with an undefined *, read-out: In vitro Tumor Cell Proliferation (IC50, μM) Breast MDA-MB-435. An outline of the steps: as §1
For another assay, the system named is HT-29. The assay can be described thus: In vitro tumor cell proliferation, HT-29. The format is cell-based, human. Particulars: many values given with an undefined *, read-out: In vitro Tumor Cell Proliferation (IC50, μM) Colon HT-29. An outline of the steps:
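Growth was quantified either with CyQUANT, plates frozen at −80° C after 3 days of drug, or by sulforhodamine B staining of TCA-fixed cells after 3 days of drug plus 4 days with fresh drug. Trypan blue-excluding HT-29 cells were plated overnight at 37° C before dosing.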

In the next assay the test system is A549. The assay can be described thus: In vitro tumor cell proliferation, A549. The format is cell-based, human. Particulars: many values given with an undefined *, read-out: In vitro Tumor Cell Proliferation (IC50, μM) Lung A549. An outline of the steps: as §1
Another assay deals with T1, cdk4/cyclin D1 (Homo sapiens, UniProt P11802).
T1 construct: made in house; host or cells: Sf9 insect cells (Bac-to-Bac baculovirus, pFastBac)
T1 sequence (P11802 whole entry): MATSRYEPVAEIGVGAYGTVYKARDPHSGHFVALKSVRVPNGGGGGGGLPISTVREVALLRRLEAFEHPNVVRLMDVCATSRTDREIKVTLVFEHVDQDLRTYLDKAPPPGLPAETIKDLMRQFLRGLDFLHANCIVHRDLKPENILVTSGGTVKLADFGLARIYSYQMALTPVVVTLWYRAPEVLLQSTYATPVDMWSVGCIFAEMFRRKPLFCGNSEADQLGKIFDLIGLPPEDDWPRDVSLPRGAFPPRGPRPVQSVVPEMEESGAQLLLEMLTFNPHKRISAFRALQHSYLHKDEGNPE
T1 sequence (P24385 whole entry partner): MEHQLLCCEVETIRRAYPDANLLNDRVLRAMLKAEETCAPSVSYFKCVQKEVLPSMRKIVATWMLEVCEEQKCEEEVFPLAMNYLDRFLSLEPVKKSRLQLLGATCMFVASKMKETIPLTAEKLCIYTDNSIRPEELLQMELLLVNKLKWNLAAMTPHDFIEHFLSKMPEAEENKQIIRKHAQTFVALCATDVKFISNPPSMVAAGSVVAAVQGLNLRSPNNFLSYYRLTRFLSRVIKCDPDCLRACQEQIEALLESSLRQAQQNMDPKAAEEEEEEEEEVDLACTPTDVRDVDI
Briefly: Cyclin-dependent Kinase 4 Assay (cdk4/cyclin D1, GST-Rb substrate). The format is biochemical. The settings on record: cdk4/cyclin D1 insect cell lysate, 10 μM ATP, 30 min at 37° C., several values = separate determinations, read-out: CDK4 Inhibition IC50. In outline: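 IC50 against cdk4 measured by scintillation counting of bead-bound GST-Rb (0.5 μg) after filtration and four TNEN washes. Reaction was 30 min at 37 °C in HEPES pH 7.5 buffer with 10 mM MgCl2 and 1 mM EGTA. Enzyme source was 0.1 μg Sf9 lysate coinfected with cdk4 and cyclin D1.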

Another assay has as its system Colo-205. The assay can be described thus: In vitro tumor cell proliferation, Colo-205. It is filed as cell-based. Particulars: values given with an undefined *, read-out: In vitro Tumor Cell Proliferation (IC50, μM) Colon Colo-205. In outline:
as §1

In another assay the target is T2, cdk2/cyclin E (Homo sapiens, UniProt P24941).
T2 construct: made in house; host or cells: insect cells (baculovirus co-infection)
Briefly: Cyclin-Dependent Kinase 2 Assay (cdk2/cyclin E, GST-Rb substrate). It is filed as biochemical. Particulars: recombinant cdk2/cyclin E, 10 μM ATP, 30 min at 30° C., several values in a cell = separate determinations, read-out: CDK-2 Inhibition IC50. As for the experimental part:
Substrate: GST-Rb as described above for cdk4/cyclin D1
Assay conditions for cdk2/cyclin E were identical to those for cdk4/cyclin D1 including the substrate. The concentration of recombinant cdk2/cyclin E in the assay was 0.1 μg per 100 μl assay. Incubation was for 30 min at 30° C.

Where [1] appears, read: Homo sapiens, MDA-MB-231, MDA-MB-231.
The mark [2] stands for this setting: Homo sapiens, MDA-MB-435, MDA-MB-435.
The mark [3] stands for this setting: Homo sapiens, COLO 205, Colo-205.

Several values for one entry are separate records, joined by “and”; a condition that tells them apart may be missing. Equal values may be shown once. Where a name gives a salt, the structure may show the parent alone. Read-outs that look alike come from different tables or passages of the source.

For `N[C@H]1CC[C@H](Nc2nc(NC3CCN(Cc4cccc(Cl)c4)CC3)c3ncn(C4CCCC4)c3n2)CC1` [Example 42, 2-[Trans-(4-aminocyclohexyl)amino]-6-[4-(1-(3-chlorobenzyl))piperidinylamino]-9-cyclopentylpurine], the IC50 is 0.24 µM in the assay on MDA-MB-231 (setting [1]); 0.3 µM in the assay on MDA-MB-231 (MDA-MB-231); 0.2 µM in the assay on DMS-114 (DMS-114); 0.27 µM with DMS-114 (Homo sapiens, DMS-114, DMS-114); 0.21 µM in the assay with PC-3 (Homo sapiens, PC-3, PC-3); 0.34 µM with PC-3 (PC-3). Moreover, the IC50 with DU145 (DU145) turned out to be 0.23 µM; in the assay with DU145 (Homo sapiens, DU-145, DU145), 0.22 µM; in the assay on MDA-MB-435 (setting [2]), 0.37 µM; in the assay with MDA-MB-435 (MDA-MB-435), 0.44 µM; in the assay with HT-29 (HT-29), 0.28 µM; with HT-29 (Homo sapiens, HT-29, HT-29), 0.25 µM. Besides, the IC50 in the assay with A549 (A549) was 0.14 µM; in the assay with A549 (Homo sapiens, A549, A549), 0.16 µM; on cdk4/cyclin D1 it was 1000 nM and 1200 nM and 2000 nM; in the assay on Colo-205 (setting [3]) it was 0.19 µM; on cdk2/cyclin E it was 200 nM and 150 nM.
As for `Cc1ccccc1CN1CCC(Nc2nc(N[C@H]3CC[C@H](N)CC3)nc3c2ncn3C2CCCC2)CC1` [Example 44, 2-[Trans-(4-aminocyclohexyl)amino]-6-[4-(1-(2-methylbenzyl))piperidinylamino]-9-cyclopentylpurine], the IC50 was 0.2 µM in the assay on MDA-MB-231 (setting [1]); 0.22 µM in the assay on MDA-MB-231 (MDA-MB-231); 0.21 µM with DMS-114 (DMS-114); 0.28 µM with DMS-114 (Homo sapiens, DMS-114, DMS-114); 0.16 µM in the assay with PC-3 (Homo sapiens, PC-3, PC-3); 0.22 µM in the assay on PC-3 (PC-3). Besides, the IC50 in the assay on DU145 (Homo sapiens, DU-145, DU145) is 0.16 µM; with MDA-MB-435 (setting [2]), 0.24 µM; with MDA-MB-435 (MDA-MB-435), 0.27 µM; in the assay with HT-29 (Homo sapiens, HT-29, HT-29) it was 0.22 µM; with A549 (A549), 0.09 µM; in the assay on A549 (Homo sapiens, A549, A549) it was 0.15 µM. Moreover, the IC50 at cdk4/cyclin D1 is 2300 nM; in the assay on Colo-205 (Colo-205), 0.17 µM; in the assay on Colo-205 (setting [3]), 0.16 µM; at cdk2/cyclin E, 230 nM and 130 nM and 340 nM.
On to `N[C@H]1CC[C@H](Nc2nc(NC3CCN(Cc4c(Cl)cccc4Cl)CC3)c3ncn(C4CCCC4)c3n2)CC1` [Example 45, 2-[Trans-(4-aminocyclohexyl)amino]-6-[4-(1-(2,6-dichlorobenzyl))piperidinylamino]-9-cyclopentylpurine], for which the IC50 came out at 0.89 µM in the assay with MDA-MB-231 (setting [1]); 0.71 µM in the assay on MDA-MB-231 (MDA-MB-231); 0.71 µM in the assay with DMS-114 (DMS-114); 1.3 µM in the assay with DMS-114 (Homo sapiens, DMS-114, DMS-114); 0.63 µM with PC-3 (Homo sapiens, PC-3, PC-3); 0.74 µM in the assay with PC-3 (PC-3). The IC50 with DU145 (DU145) amounted to 0.46 µM; in the assay on DU145 (Homo sapiens, DU-145, DU145) it was 0.51 µM; with MDA-MB-435 (setting [2]), 0.96 µM; with MDA-MB-435 (MDA-MB-435), 0.75 µM; in the assay with HT-29 (HT-29) it was 0.55 µM; in the assay on HT-29 (Homo sapiens, HT-29, HT-29), 0.71 µM. Also, the IC50 is 0.32 µM in the assay on A549 (A549); 0.46 µM in the assay on A549 (Homo sapiens, A549, A549); 6700 nM at cdk4/cyclin D1; 0.48 µM in the assay on Colo-205 (Colo-205); 0.53 µM in the assay on Colo-205 (setting [3]); 1100 nM and 900 nM at cdk2/cyclin E.
On to `N[C@H]1CC[C@H](Nc2nc(NC3CCN(Cc4ccc(C(F)(F)F)cc4)CC3)c3ncn(C4CCCC4)c3n2)CC1` [Example 46, 2-[Trans-(4-aminocyclohexyl)amino]-6-[4-(1-(4-trifluoromethylbenzyl))piperidinylamino]-9-cyclopentylpurine], for which the IC50 in the assay with MDA-MB-231 (MDA-MB-231) was 0.46 µM and 0.53 µM; with DMS-114 (DMS-114), 0.35 µM and 0.58 µM; with PC-3 (PC-3), 0.39 µM and 0.46 µM; in the assay with DU145 (DU145), 0.36 µM and 0.49 µM; with MDA-MB-435 (MDA-MB-435), 0.61 µM and 0.62 µM; in the assay on HT-29 (HT-29), 0.53 µM and 0.44 µM. For the same molecule, the IC50 was 0.28 µM and 0.33 µM in the assay with A549 (A549); 20000 nM at cdk4/cyclin D1; 0.44 µM and 0.46 µM in the assay on Colo-205 (Colo-205); 500 nM and 450 nM on cdk2/cyclin E.
`N[C@H]1CC[C@H](Nc2nc(N[C@H]3CC[C@H](O)CC3)c3ncn(C4CCCC4)c3n2)CC1` [Example 145a, Trans-2-[Trans-(4-aminocyclohexyl)amino]-6-[(4-hydroxy)cyclohexylamino]-9-cyclopentylpurine dihydrochloride]: the IC50 amounted to 3 µM with MDA-MB-231 (setting [1]); 2.9 µM with MDA-MB-231 (MDA-MB-231, dihydrochloride); 3.1 µM in the assay with DMS-114 (DMS-114, dihydrochloride); 4.6 µM in the assay on DMS-114 (Homo sapiens, DMS-114, DMS-114); 1.9 µM in the assay with PC-3 (Homo sapiens, PC-3, PC-3); 2.1 µM with PC-3 (PC-3, dihydrochloride). The IC50 worked out at 3.8 µM in the assay with DU145 (DU145, dihydrochloride); 3.9 µM in the assay on DU145 (Homo sapiens, DU-145, DU145); 3.3 µM in the assay on MDA-MB-435 (setting [2]); 3.8 µM with MDA-MB-435 (MDA-MB-435, dihydrochloride); 2.3 µM in the assay on HT-29 (HT-29, dihydrochloride); 3.4 µM in the assay with HT-29 (Homo sapiens, HT-29, HT-29). Besides, the IC50 in the assay with A549 (A549, dihydrochloride) is 4.8 µM; in the assay with A549 (Homo sapiens, A549, A549), 4.4 µM; at cdk4/cyclin D1, 1500 nM and 1600 nM; in the assay on Colo-205 (Colo-205, dihydrochloride) it was 1.6 µM; in the assay on Colo-205 (setting [3]) it was 1.7 µM; at cdk2/cyclin E it was 50 nM.
On to `N[C@H]1CC[C@H](Nc2nc(NC3(CO)CCCC3)c3ncn(C4CCCC4)c3n2)CC1` [Example 146, (R,S)-2-[Trans-(4-aminocyclohexyl)amino]-6-[(1-hydroxymethyl)cyclopentylamino]-9-cyclopentylpurine dihydrochloride], for which the IC50 with MDA-MB-231 (MDA-MB-231, dihydrochloride) was 12 µM; with DMS-114 (DMS-114, dihydrochloride) it was 11 µM; in the assay on PC-3 (Homo sapiens, PC-3, PC-3), 11 µM; in the assay with PC-3 (PC-3, dihydrochloride), 10 µM; with DU145 (DU145, dihydrochloride) it was 16 µM; in the assay on DU145 (Homo sapiens, DU-145, DU145) it was 12 µM. Moreover, the IC50 in the assay on MDA-MB-435 (MDA-MB-435, dihydrochloride) was 21 µM; in the assay on HT-29 (HT-29, dihydrochloride), 11 µM; in the assay with HT-29 (Homo sapiens, HT-29, HT-29), 16 µM; in the assay with A549 (Homo sapiens, A549, A549) it was 12 µM; at cdk4/cyclin D1, 1600 nM and 810 nM and 500 nM; with Colo-205 (setting [3]), 12 µM. For the same molecule, at cdk2/cyclin E, the IC50 came to 164 nM.
